# Tests used:
# [1] = tested on: Sprague Dawley rat hippocampal slices; experiment: Ex vivo electrophysiology in rat hippocampal slices: mEPSP frequency; format: cell-based
# Source text: The effect of compound 1 to enhance mEPSPs may be dependent on the influx of extracellular calcium.
# [2] = tested on: adult subjects with major depressive disorder (MDD); experiment: Phase 2 clinical trial in MDD: MADRS Item #6 Concentration Difficulties; format: in vivo, human; set-up: key to MADRS Item #6 Concentration Difficulty score, Median / MADRS Item #6 Concentration Difficulty score, Min / MADRS Item #6 Concentration Difficulty score, Max: 0 = no concentration difficulty, 6 = unable to read/converse; key to MADRS Item #6 Change from Baseline, Median / MADRS Item #6 Change from Baseline, Max: change from baseline on 0–6 MADRS item scale; settings: for MADRS Item #6 Change from Baseline, Max / MADRS Item #6 Change from Baseline, Mean (SD) / MADRS Item #6 Change from Baseline, Median / MADRS Item #6 Change from Baseline, Min / MADRS Item #6 Concentration Difficulty score, Max / MADRS Item #6 Concentration Difficulty score, Mean (SD) / MADRS Item #6 Concentration Difficulty score, Median / MADRS Item #6 Concentration Difficulty score, Min / MADRS Item #6 Change from Baseline, LSM Difference (95% CI) SP-624 vs Placebo: mITT, Females; for MADRS Item #6 Change from Baseline, LSM Difference (95% CI) SP-624 vs Placebo: MMRM
# Protocol: A Phase 2, multicenter, double-blind, randomized, placebo-controlled study of the safety and efficacy of SP-624 in the treatment of adult subjects with major depressive disorder (MDD) as defined by the Diagnostic and Statistical Manual of Mental Disorders, Fifth Edition (DSM-5) was carried out. Following the successful completion of a Screening Phase, subjects were randomized to one of two treatment groups in a 1:1 ratio and received Compound 1 (SP-624) or placebo over a treatment period of four weeks (Treatment Group #1: SP-624 20 mg/day; Treatment Group #2: Placebo).
# Prior to initiating the 4-week treatment period, subjects completed a Screening/Baseline period of up to 28 days, during which time all screening assessments were performed, and any current depression medications discontinued. All screening assessments were completed before discontinuing any current depression medications. Subjects returned for a Baseline Visit to complete efficacy and safety assessments. During the treatment period, subjects returned to the investigative site to complete efficacy and safety assessments at the end of Weeks 1, 2, 3, and 4. After the final dose of study drug, subjects completed a follow-up period of two weeks and returned at the end of Weeks 5 and 6. Subjects may be treated with anti-depressant medications according to physician recommendations after completion of the Week 5 Visit.
# Each dose of Compound 1 was supplied as two capsules, each containing 10 mg of active pharmaceutical ingredient (API). Matching placebo capsules identical in shape and color to the active capsules were used.
# The third cognitive function measurement is MADRS Item #6 Concentration Difficulties (representing difficulties in collecting one's thoughts mounting to incapacitating lack of concentration, rated according to intensity, frequency, and degree of incapacity produced). The answer scale is: 0—No difficulties in concentration; 1—blank; 2—Occasional difficulties in collecting one's thoughts; 3—blank; 4—Difficulties in concentrating and sustaining thought which reduces ability to read or hold a conversation; 5—blank; 6—Unable to read or converse without great difficulty.
# [3] = tested on: Wistar rats; experiment: Novel object recognition test, subchronic PCP-induced cognitive impairment; format: in vivo, rat
# Protocol: The total exploration time of two identical objects in the acquisition trial was measured manually and indicated as the mean±SEM (n=10). No statistical difference was found in the total exploration time among the different groups by one-way ANOVA (P=0.340).
# NDI was calculated using the following equation: novel object interaction time/total interaction time×100(%). Data are represented as the mean±SEM (n=10). Significant difference from control group was indicated by ***P<0.001 (Student's t-test). Significant differences from PCP-treated group were indicated by ##P<0.01, #P<0.05 (Dunnett test). Significant difference from PCP-treated group were indicated by ††P<0.01 (Student's t-test).
# Exploration time of each object in retention trial was measured manually and presented as the mean±SEM (n=10). Significant differences from familiar object interaction were indicated by ***P<0.001, **P<0.01 (paired t-test).
# A novel object recognition test was conducted to investigate the effect of SP-624 on subchronic PCP-induced cognitive impairment in Wistar rats. Clozapine was used as a positive control.
# [4] = Week 5 (1-week after the last dose), 20 mg/day for four weeks
smiles,measurement,setting,value
"COC1=CC(=O)C[C@@H](C)[C@]12Oc1c(Cl)c(-c3nnc(C)o3)cc(OC)c1C2=O [Compound 1, (2S,6′R)-7-Chloro-2′,4-dimethoxy-6′-methyl-6-(5-methyl-1,3,4-oxadiazol-2-yl)-3H-spiro[1-benzofuran-2,1′-cyclohex[2]ene]-3,4′-dione]",frequency of miniature excitatory post-synaptic potentials (mEPSPs) in the hippocampus,[1],increase the frequency
same,"MADRS Item #6 Change from Baseline, Max","[2]; Week 1, 20 mg/day",1
same,"MADRS Item #6 Change from Baseline, Mean (SD)","[2]; Week 1, 20 mg/day",−0.7 (1.27)
same,"MADRS Item #6 Change from Baseline, Median","[2]; Week 1, 20 mg/day",0
same,"MADRS Item #6 Change from Baseline, Min","[2]; Week 1, 20 mg/day",−5
same,"MADRS Item #6 Concentration Difficulty score, Max","[2]; Week 1, 20 mg/day",6
same,"MADRS Item #6 Concentration Difficulty score, Mean (SD)","[2]; Week 1, 20 mg/day",3.0 (1.48)
same,"MADRS Item #6 Concentration Difficulty score, Median","[2]; Week 1, 20 mg/day",4
same,"MADRS Item #6 Concentration Difficulty score, Min","[2]; Week 1, 20 mg/day",0
same,"MADRS Item #6 Change from Baseline, LSM Difference (95% CI) SP-624 vs Placebo","[2]; Week 1, 20 mg/day, P-value 0.339","−0.2 (−0.5, 0.2)"
same,"MADRS Item #6 Change from Baseline, Max","[2]; Week 2, 20 mg/day",3
same,"MADRS Item #6 Change from Baseline, Mean (SD)","[2]; Week 2, 20 mg/day",−0.7 (1.27)
same,"MADRS Item #6 Change from Baseline, Median","[2]; Week 2, 20 mg/day",0
same,"MADRS Item #6 Change from Baseline, Min","[2]; Week 2, 20 mg/day",−4
same,"MADRS Item #6 Concentration Difficulty score, Max","[2]; Week 2, 20 mg/day",5
same,"MADRS Item #6 Concentration Difficulty score, Mean (SD)","[2]; Week 2, 20 mg/day",3.0 (1.37)
same,"MADRS Item #6 Concentration Difficulty score, Median","[2]; Week 2, 20 mg/day",3
same,"MADRS Item #6 Concentration Difficulty score, Min","[2]; Week 2, 20 mg/day",0
same,"MADRS Item #6 Change from Baseline, LSM Difference (95% CI) SP-624 vs Placebo","[2]; Week 2, 20 mg/day, P-value 0.753","0.1 (−0.3, 0.4)"
same,"MADRS Item #6 Change from Baseline, Max","[2]; Week 3, 20 mg/day",0
same,"MADRS Item #6 Change from Baseline, Mean (SD)","[2]; Week 3, 20 mg/day",−1.2 (1.40)
same,"MADRS Item #6 Change from Baseline, Median","[2]; Week 3, 20 mg/day",−1
same,"MADRS Item #6 Change from Baseline, Min","[2]; Week 3, 20 mg/day",−5
same,"MADRS Item #6 Concentration Difficulty score, Max","[2]; Week 3, 20 mg/day",4
same,"MADRS Item #6 Concentration Difficulty score, Mean (SD)","[2]; Week 3, 20 mg/day",2.6 (1.58)
same,"MADRS Item #6 Concentration Difficulty score, Median","[2]; Week 3, 20 mg/day",3
same,"MADRS Item #6 Concentration Difficulty score, Min","[2]; Week 3, 20 mg/day",0
same,"MADRS Item #6 Change from Baseline, LSM Difference (95% CI) SP-624 vs Placebo","[2]; Week 3, 20 mg/day, P-value 0.214","−0.3 (−0.7, 0.2)"
same,"MADRS Item #6 Change from Baseline, Max","[2]; Week 4, 20 mg/day",1
same,"MADRS Item #6 Change from Baseline, Mean (SD)","[2]; Week 4, 20 mg/day",−1.2 (1.51)
same,"MADRS Item #6 Change from Baseline, Median","[2]; Week 4, 20 mg/day",−1
same,"MADRS Item #6 Change from Baseline, Min","[2]; Week 4, 20 mg/day",−4
same,"MADRS Item #6 Concentration Difficulty score, Max","[2]; Week 4, 20 mg/day",5
same,"MADRS Item #6 Concentration Difficulty score, Mean (SD)","[2]; Week 4, 20 mg/day",2.5 (1.67)
same,"MADRS Item #6 Concentration Difficulty score, Median","[2]; Week 4, 20 mg/day",3
same,"MADRS Item #6 Concentration Difficulty score, Min","[2]; Week 4, 20 mg/day",0
same,"MADRS Item #6 Change from Baseline, LSM Difference (95% CI) SP-624 vs Placebo","[2]; Week 4, 20 mg/day, P-value 0.144","−0.3 (−0.8, 0.1)"
same,"MADRS Item #6 Change from Baseline, Max",[2]; [4],1
same,"MADRS Item #6 Change from Baseline, Mean (SD)",[2]; [4],−1.3 (1.51)
same,"MADRS Item #6 Change from Baseline, Median",[2]; [4],−1
same,"MADRS Item #6 Change from Baseline, Min",[2]; [4],−5
same,"MADRS Item #6 Concentration Difficulty score, Max",[2]; [4],5
same,"MADRS Item #6 Concentration Difficulty score, Mean (SD)",[2]; [4],2.4 (1.63)
same,"MADRS Item #6 Concentration Difficulty score, Median",[2]; [4],3
same,"MADRS Item #6 Concentration Difficulty score, Min",[2]; [4],0
same,"MADRS Item #6 Change from Baseline, LSM Difference (95% CI) SP-624 vs Placebo","[2]; Week 5 (1-week after the last dose), 20 mg/day for four weeks, P-value 0.007","−0.6 (−1.1, −0.2)"
same,"MADRS Item #6 Concentration Difficulties, improvement in score vs placebo","[2]; all measurement times through week 5, 20 mg/day",greater improvement in score
same,sub-chronic PCP-induced cognitive deficits in the NDI,[3]; 0.01 mg/kg,not
same,sub-chronic PCP-induced cognitive deficits in the NDI,[3]; 0.1 and 1 mg/kg,significantly attenuated

# Reference: patent publication US20260034103A1, “COMPOSITIONS AND METHODS FOR IMPROVING MEMORY AND COGNITION” (priority 2022, published 2026)
